Results from the supplement of paper PMC10307832.

How the values were obtained:
Assay in all cases: relative viability (nuclei count vs DMSO), 5 days (fraction); higher = more cells survive
[1] = compound: CC1(COc2ccc3c(c2)ncn3-c2ccc3cccc(N4CCC(N)CC4)c3n2)COC1 [Crenolanib] + CCNC(=O)c1noc(-c2cc(C(C)C)c(O)cc2O)c1-c1ccc(CN2CCOCC2)cc1 [Luminespib] (partner 0.01 µM)
Procedure, shortened: (§1)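 Medians of duplicate plates are given as relative viability. That measure is the nuclei count in treated wells divided by the count in vehicle wells. Counts were taken on 4× images of lung cancer cell lines in 1536-well plates, 5 days after pin-tool dosing the day after seeding with one drug alone or a fixed anchor-drug dose plus five library-drug doses (not always all listed) in √10 steps.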

[2] = compound: O=C1NC(=O)[C@@H](c2cn3c4c(cccc24)CCC3)[C@@H]1c1c[nH]c2ccccc12 [Tivantinib] + CS(=O)(=O)N1CCN(Cc2cc3nc(-c4cccc5[nH]ncc45)nc(N4CCOCC4)c3s2)CC1 [Pictilisib] (partner 1 µM)
Procedure, shortened: as §1

[3] = compound: CC1(COc2ccc3c(c2)ncn3-c2ccc3cccc(N4CCC(N)CC4)c3n2)COC1 [Crenolanib] + O=C(c1cc(Cc2n[nH]c(=O)c3ccccc23)ccc1F)N1CCN(C(=O)C2CC2)CC1 [Olaparib] (partner 8 µM)
Procedure, shortened: as §1

[4] = compound: O=C1NC(=O)[C@@H](c2cn3c4c(cccc24)CCC3)[C@@H]1c1c[nH]c2ccccc12 [Tivantinib] + NC(=O)Nc1cc(-c2cccc(F)c2)sc1C(=O)N[C@H]1CCCNC1 [AZD7762] (partner 0.2 µM)
Procedure, shortened: as §1

| Cell Line | relative viability ([1]; first compound 0.01 µM) | relative viability ([1]; first compound 0.03162 µM) | relative viability ([1]; first compound 0.1 µM) | relative viability ([1]; first compound 0.3162 µM) | relative viability ([1]; first compound 1 µM) | relative viability ([2]; first compound 0.01 µM) | relative viability ([2]; first compound 0.03162 µM) | relative viability ([2]; first compound 0.1 µM) | relative viability ([2]; first compound 0.3162 µM) | relative viability ([3]; first compound 0.01 µM) | relative viability ([3]; first compound 0.03162 µM) | relative viability ([3]; first compound 0.1 µM) | relative viability ([3]; first compound 0.3162 µM) | relative viability ([3]; first compound 1 µM) | relative viability ([4]; first compound 0.01 µM) | relative viability ([4]; first compound 0.03162 µM) | relative viability ([4]; first compound 0.1 µM) | relative viability ([4]; first compound 0.3162 µM) |
| --- | --- | --- | --- | --- | --- | --- | --- | --- | --- | --- | --- | --- | --- | --- | --- | --- | --- | --- |
| NCI-H2009 | 1.04 | 1.08 | 1.06 | 1.11 | 0.982 | 0.875 | 0.464 | 0.767 | 0.763 | 0.694 | 0.672 | 0.694 | 0.682 | 0.555 |  |  |  |  |
| SW 1573 | 0.833 | 0.283 | 0.152 | 0.54 | 0.16 | 0.491 | 0.52 | 0.406 | 0.472 | 0.589 | 0.416 | 0.44 | 0.651 | 0.484 |  |  |  |  |
| NCI-H522 | 1.01 | 0.993 | 1.15 | 1.17 | 1.21 |  |  |  |  | 0.581 | 0.676 | 0.639 | 0.591 | 0.62 | 0.829 | 0.812 | 0.864 | 0.612 |
| NCI-H2023 | 0.839 | 0.704 | 0.639 | 1 | 0.453 | 0.246 | 0.225 | 0.218 | 0.202 | 0.53 | 0.467 | 0.476 | 0.451 | 0.322 |  |  |  |  |
| NCI-H1648 |  |  |  |  |  |  |  |  |  | 1.08 |  | 0.717 | 0.899 | 0.853 |  | 0.61 | 0.767 | 0.479 |
| SK-MES-1 | 0.827 | 0.728 | 0.699 | 0.83 | 0.57 | 0.413 | 0.368 | 0.4 | 0.213 | 0.759 | 0.705 | 0.682 | 0.791 | 0.674 |  |  |  |  |
| NCI-H1563 | 0.552 | 0.499 | 0.531 | 0.517 | 0.478 | 0.608 | 0.6 | 0.651 | 0.674 |  |  |  |  |  |  |  |  |  |
| NCI-H2342 | 0.822 | 0.701 | 0.779 | 0.77 | 0.807 |  |  |  |  | 0.445 | 0.484 | 0.411 | 0.445 | 0.494 | 0.505 | 0.515 | 0.432 | 0.39 |
| SW 900 | 0.167 | 0.177 | 0.172 | 0.218 | 0.196 |  |  |  |  | 0.925 |  | 0.8 | 0.959 | 0.979 | 0.682 | 0.464 | 0.5 | 0.496 |
| A549 |  |  |  |  |  | 0.495 | 0.518 | 0.468 | 0.449 | 0.474 | 0.317 | 0.329 | 0.421 | 0.365 |  |  |  |  |
| NCI-H520 | 0.19 | 0.269 | 0.279 | 0.216 | 0.221 | 0.292 | 0.237 | 0.268 | 0.262 | 0.367 | 0.258 | 0.33 | 0.288 | 0.338 |  |  |  |  |
| HCC-366 |  |  |  |  |  | 0.157 | 0.147 | 0.119 | 0.141 | 0.414 | 0.362 | 0.344 | 0.509 | 0.332 | 0.229 | 0.403 | 0.316 | 0.237 |
| NCI-H1650 | 0.193 | 0.231 | 0.203 | 0.213 | 0.178 | 0.561 | 0.389 | 0.589 | 0.605 | 0.677 | 0.84 | 0.659 | 0.82 | 0.607 |  |  |  |  |
